Data on six compounds can be found in patent publication US20260226037A1, “MICROTUBULE TARGETING AGENTS” (ARIEL SCIENTIFIC INNOVATIONS LTD., priority 2022, published 2026).

Common to all, as to type: cell-based
One assay relates to MES-SA/DX5 cells. The assay can be described thus: XTT cytotoxicity, MES-SA/DX5. The following applies: for IC50: Homo sapiens, MES-SA/DX5, uterine sarcoma, P-gp overexpression; for IC50 ratio between resistant and non-resistant cells: MES-SA/DX5 / MES-SA. Here is the method:
(§1) The cytotoxic activity of the novel family was evaluated against various tumor cells, including myeloma cells, acute lymphoblastic leukemia cells, acute monocytic leukemia cells, chronic myelogenous leukemia cells, pancreatic cancer cells, breast cancer cells, uterine sarcoma cells, cervix adenocarcinoma cells, ovary cancer cells, melanoma cells, osteosarcoma cells, prostate cancer cells, lung cancer cells, neuroblastoma cells and colorectal adenocarcinoma cells by XTT assay.

Another assay concerns RPMI 8226 cells. The assay can be described thus: XTT cytotoxicity, RPMI 8226. As to conditions: Homo sapiens; RPMI 8226, multiple myeloma, non-resistant; read-out: IC50. Here is the method: as §1
Background: Tetrazolium assays rely on reduction of a dye to a coloured formazan, in cell work by metabolically active cells.

A further assay deals with RPMI-DOX40 cells. The assay can be described thus: XTT cytotoxicity, RPMI-DOX40. The following applies: for IC50: RPMI-DOX40, multiple myeloma, P-gp overexpression, read-out: IC50; for IC50 ratio between resistant and non-resistant cells: RPMI-DOX40 / RPMI 8226. Here is the method: as §1
The test system of another assay is RPMI-LR5 cells. The assay can be described thus: XTT cytotoxicity, RPMI-LR5. The following applies: for IC50: RPMI-LR5, multiple myeloma, melphalan resistant, read-out: IC50; for IC50 ratio between resistant and non-resistant cells: RPMI-LR5 / RPMI 8226. Here is the method: as §1
In a further assay the test system is RPMI-MR20 cells. The assay can be described thus: XTT cytotoxicity, RPMI-MR20. The following applies: for IC50: RPMI-MR20, mitoxantrone resistant, read-out: IC50; for IC50 ratio between resistant and non-resistant cells: RPMI-MR20 / RPMI 8226. Here is the method: as §1
The test system of a further assay is MM1.S cells. The assay can be described thus: XTT cytotoxicity, MM1.S. As to conditions: Homo sapiens, multiple myeloma, non-resistant, read-out: IC50. Here is the method:
as §1

The next assay has as its system MM1.R cells. The assay can be described thus: XTT cytotoxicity, MM1.R. As to conditions: for IC50: MM.1R, MM1.R, multiple myeloma, dexamethasone resistant, read-out: IC50. Here is the method:
as §1

The test system of another assay is NALM6 cells. The assay can be described thus: XTT cytotoxicity, NALM6. The following applies: Homo sapiens, NALM-6; NALM6, acute lymphoblastic leukemia, non-resistant; read-out: IC50. Here is the method: as §1
(§2) Most tubulin-binding anticancer drugs currently used in the clinic are substrates for Pgp effux pump. […] The inventors tested the viability of NALM6 acute lymphoblastic leukemia cell line (ALL) and its corresponding doxorubicin resistant N6/ADR cell line that overexpress Pgp glycoprotein and has cross-resistance to vincristine.

The subject of another assay is N6/ADR cells. The assay can be described thus: XTT cytotoxicity, N6/ADR. The following applies: for IC50 ratio between resistant and non-resistant cells: N6/ADR / NALM6; for IC50: N6/ADR, acute lymphoblastic leukemia, P-gp overexpression, read-out: IC50. Here is the method: as §1, §2
The test system of the next assay is MCF7 cells. The assay can be described thus: XTT cytotoxicity, MCF7. The following applies: Homo sapiens; MCF7, breast adenocarcinoma, non-resistant. Here is the method:
as §1

For the next assay, the system named is MCF7-VP cells. The assay can be described thus: XTT cytotoxicity, MCF7-VP. The following applies: for IC50: Homo sapiens, MCF7-VP, breast adenocarcinoma, MRP overexpression; for IC50 ratio between resistant and non-resistant cells: MCF7-VP / MCF7. Here is the method:
as §1

The test system of another assay is MES-SA cells. The assay can be described thus: XTT cytotoxicity, MES-SA. As to conditions: Homo sapiens, poorly differentiated uterine sarcoma, non-resistant. Here is the method:
as §1

In assay [1] the test system is colchicine binding site on tubulin protein. The assay can be described thus: EBI competition assay, RPMI-8226 cells. The following applies: RPMI-8226 living cells.

For the compound `COc1cc2c(c(OC)c1OC)-c1ccc(OC)c(=O)cc1[C@@H](NC(C)=O)CC2` [Colchicine], the “effectiveness in subline overexpressing PgP” value in the assay with MES-SA/DX5 cells (MES-SA/DX5 vs MES-SA) is recorded as “less effective in the subline overexpressing PgP”.

Turning to `CCCCCOC(=O)c1[nH]c2c(c1C)C(=O)CC(c1ccco1)C2` (stereo not shown) [SMS001, reference compound], the concentration for half-maximal inhibition (IC50) (in general, the concentration at which inhibition is half-maximal) in the assay with RPMI 8226 cells was found to be 40 nM; in the assay on RPMI-DOX40 cells, 34 nM; with RPMI-LR5 cells, 29 nM; with RPMI-MR20 cells, 35 nM; with MM1.S cells it was 63 nM; in the assay with MM1.R cells, 69 nM. The IC50 with NALM6 cells turned out to be 37 nM; in the assay on N6/ADR cells, 37 nM; in the assay with MCF7 cells, 350 nM; in the assay with MCF7-VP cells, 469 nM; in the assay on MES-SA cells, 203 nM; in the assay with MES-SA/DX5 cells it was 49 nM. Besides, the “IC50 ratio between resistant and non-resistant cells” value in the assay with RPMI-DOX40 cells is on record as 0.850; with RPMI-LR5 cells it was 0.725; in the assay with RPMI-MR20 cells it was 0.875; in the assay with N6/ADR cells, 1.000; in the assay with MCF7-VP cells, 1.340; in the assay on MES-SA/DX5 cells, 0.241. Moreover, the “prevention of covalent binding of EBI to the colchicine binding site” value in assay [1] is “prevented the covalent binding of EBI to the colchicine binding site”.

With `CCCCCOC(=O)c1[nH]c2c(c1C)C(=O)CN(c1ccccc1)C2` [SMS078, Pentyl 3-methyl-4-oxo-6-phenyl-4,5,6,7-tetrahydro-1H-pyrrolo[2,3-c]pyridine-2-carboxylate], the concentration for half-maximal inhibition (IC50) stood at 210 nM in the assay with RPMI 8226 cells, 489 nM in the assay on RPMI-DOX40 cells, 178 nM in the assay on NALM6 cells and 165 nM with N6/ADR cells. Also, the “IC50 ratio between resistant and non-resistant cells” value is given as 2.329 in the assay with RPMI-DOX40 cells and 0.927 with N6/ADR cells.

For `CCCCCOC(=O)c1[nH]c2c(c1C)C(=O)CC(c1nccs1)C2` (stereo not shown) [SMS213, pentyl-3-methyl-4-oxo-6-(thiazol-2-yl)-4,5,6,7-tetrahydro-1H-indole-2-carboxylate], the IC50 in the assay on RPMI 8226 cells was found to be 92 nM; in the assay on RPMI-DOX40 cells it was 68 nM; in the assay on RPMI-LR5 cells it was 60 nM; in the assay on RPMI-MR20 cells, 79 nM; in the assay on MM1.S cells, 124 nM; with MM1.R cells, 147 nM. Besides, the IC50 came to 107 nM in the assay with NALM6 cells; 109 nM in the assay with N6/ADR cells; 243 nM with MCF7 cells; 513 nM in the assay on MCF7-VP cells; 120 nM in the assay on MES-SA cells; 139 nM in the assay on MES-SA/DX5 cells. Moreover, the “IC50 ratio between resistant and non-resistant cells” value is recorded as 0.739 with RPMI-DOX40 cells; 0.652 in the assay on RPMI-LR5 cells; 0.859 with RPMI-MR20 cells; 1.185 in the assay on MM1.R cells (MM1.R / MM1.S); 1.019 in the assay with N6/ADR cells; 2.114 with MCF7-VP cells. In addition, the “IC50 ratio between resistant and non-resistant cells” value with MES-SA/DX5 cells worked out at 1.158.

Take `CCCOC(=O)c1[nH]c2c(c1C)C(O)CC(c1ncco1)C2` (stereo not shown) [SMS291, propyl-4-hydroxy-3-methyl-6-(oxazol-2-yl)-4,5,6,7-tetrahydro-1H-indole-2-carboxylate]: the IC50 with RPMI 8226 cells amounted to 978 nM; in the assay on RPMI-DOX40 cells, 531 nM; in the assay with NALM6 cells, 510 nM; in the assay with N6/ADR cells, 350 nM. Besides, the “IC50 ratio between resistant and non-resistant cells” value in the assay with RPMI-DOX40 cells was determined as 0.543; with N6/ADR cells it was 0.686. Further, the “prevention of covalent binding of EBI to the colchicine binding site” value in [1] was “did not prevent the covalent binding of EBI to the colchicine binding site”.

As to `CCCOC(=O)c1[nH]c2c(c1C)C(=O)CN(c1ncco1)C2` [SMS294, Propyl 3-methyl-6-(oxazol-2-yl)-4-oxo-4,5,6,7-tetrahydro-1H-pyrrolo[2,3-c]pyridine-2-carboxylate], the half-inhibitory concentration (IC50) is 666 nM in the assay on RPMI 8226 cells, 1060 nM in the assay on RPMI-DOX40 cells, 907 nM in the assay with NALM6 cells and 1940 nM with N6/ADR cells. Further, the “IC50 ratio between resistant and non-resistant cells” value in the assay with RPMI-DOX40 cells is reported as 1.598; with N6/ADR cells, 2.138.
